Data: patent publication US20220372014A1, “NEUROPROTECTIVE COMPOUNDS AND METHODS OF USE THEREOF” (The Johns Hopkins University, priority 2019, published 2022)
Where a SMILES comes first, the peptide text is derived from it. The star is where a group is joined. Cbz = O=C(OCc1ccccc1)*; CH2F = FC*

How the values were obtained:
[1] = system: SH-SY5Y cells; assay: MNNG-induced parthanatic cell death in SH-SY5Y cells (Alamar blue cell viability); type: cell-based; details: 50 μM MNNG for 15 min, viability after 24 h
From the text: We developed an assay to screen for PAAN/MIF nuclease inhibitors. Single-stranded PAAN/MIF nuclease DNA substrate (FIG. 10A) was amine modified on the 5′ end and immobilized on a plate. Hybridization with a biotin-labeled complementary oligonucleotide followed by addition of streptavidin conjugated horseradish peroxidase enzyme (HRP) leads to retention of HRP on the surface within each well in the presence of intact PAAN/MIF nuclease DNA substrate, which can be quantitatively detected through colorimetric change at 450 nm using the HRP substrate 3,3′,5,5′-tetramethylbenzidine (TMB). In the presence of WT PAAN/MIF, there is reduced signal, indicative of cleavage of the PAAN/MIF nuclease substrate, while the signal is not attenuated without recombinant PAAN/MIF (FIGS. 1 and 10B). […] Thus, the rapafucin library containing 45,000 macrocyclic compounds in 3,000 pools of 15 compounds was screened using this assay. […] Several pools were identified that inhibit PAAN/MIF nuclease activity from the primary screen (FIG. 4A). […] Nine pools of compounds were identified that both inhibit PAAN/MIF cleavage of the substrate and protect against MNNG-induced parthanatic cell death by greater than 70% (FIG. 10D). […] Next, the 90 individual compounds in the 6 pools were synthesized and further assessed for inhibition of PAAN/MIF nuclease activity and MNNG-induced parthanatic cell death. Among them 12 compounds (compounds 16-18, 26-28, 41, 56, 66, 67, 76, and 77) were identified that block MIF nuclease activity and MNNG-induced parthanatic cell death by greater than 60% (FIG. 10F). Dose dependence (0.1 to 1.0 μM) were assessed for the 12 compounds against MNNG-induced parthanatic cell death (FIG. 11A and Table 2) and inhibition of PAAN MIF nuclease activity against the RF (FIG. 111B) and PS30 substrates (FIG. 11C).
Cell culture, transfection, primary neuronal culture and treatment. SH-SY5Y cells (ATCC) were cultured in DMEM containing 10% fetal bovine serum and penicillin/streptomycin at 37° C. under 5% C02. The cells were transfected using PolyFect reagent (Qiagen). Parthanatos was induced by the treatment of 50 μM MNNG for 15 min in SH-SY5Y cells. ABT-888 or PAAN/MIF inhibitors were pretreated with indicated concentration 1 h before MNNG treatment and cell death were assessed after 24 h. Primary cortical neurons from WT, PAAN/MIF KO, E22Q KI or P1G KI embryos were prepared as previously described See Kam et al. (2018) Science 362:eaat8407. Briefly, the cortex was dissected and cultured at embryonic day 16 in neurobasal media supplemented with B-27, 0.5 mM L-glutamine, penicillin and streptomycin (Invitrogen). Primary neurons were infected with AAV2-control, AAV2-PAAN/MIF WT, AAV2-PAAN/MIF E22Q, AAV2-PAAN/MIF E22A or AAV2-MIF P1G (ViGene Biosciences) at days in vitro (DIV) 4-5. ABT-888 or PAAN/MIF inhibitors were applied to neurons 1 h before α-syn PFF treatment. The neuron growth medium was replaced with fresh medium alone or including inhibitors every 3-4 days. α-syn PFF was added at DIV 7 and further incubated for indicated times followed by the cell death assay or biochemical experiments.
Cell death and viability assessment. Primary cultured cortical neurons were treated with 5 μg/ml of α-syn PFF for 14 days and cell death was determined by staining of all nuclei with 7 μM Hoechst 33342 and dead cell nuclei with 2 μM propidium iodide (PI) (Invitrogen). The numbers of total and dead cells were counted with the Axiovision 4.6 software (Carl Zeiss). Cell viability was determined by fluorescence at an excitation wavelength 570 nm and an emission wavelength 585 nm using Alamar Blue (Invitrogen). […]

[2] = system: HT 22 cells; assay: TNF-α and z-VAD-induced necroptosis, Alamar blue; type: cell-based; details: 1 ng/ml TNF-α with 50 μM z-VAD
Experimental: (§1) Graphs represent mean±s.e.m. ***P<0.0005, two-way ANOVA followed by Tukey's post hoc test (n=3). A PARP inhibitor, ABT-888 is used for the positive control. FIGS. 12B and 12C show in vitro oxidoreductase and tautomerase activity of MIF/PAAN with compound 41, 56, 76, or 77. FIGS. 12D and 12E show Alamar blue cell viability assay from SH-SY5Y cells pre-incubated with compound 41, 56, 76, or 77 in response to 0.5 μM staurosporine (STS) or from HT 22 cells incubated with 1 ng/ml of TNF-α with 50 μM z-VAD. A pan caspase inhibitor, z-VAD or necrostatin (Nec-1) is used for the positive control and PARP inhibitor, ABT-888 is used for negative control. Bars represent mean±s.e.m. ***P<0.0005, two-way ANOVA followed by Tukey's post hoc test (n=3). […] Bars represent mean±s.e.m. **P<0.005, ***P<0.0005, two-way ANOVA followed by Tukey's post hoc test (n=3).
(§2) FIGS. 14A-14G show the characterization of compound 121. […] Bars represent means±s.e.m. ***P<0.0005, two-way ANOVA followed by Tukey's post hoc test (n=4). […] Bars represent mean±s.e.m. ***P<0.0005, two-way ANOVA followed by Tukey's post hoc test (n=4). […] Bars represent means±s.e.m. **P<0.005, ***P<0.0005, one-way ANOVA followed by Tukey's post hoc test (n=3). […] Bar represent mean±s.e.m. ***P<0.0005, one-way ANOVA followed by Tukey's post hoc test (n=3). […] Quantification of inhibition of PARP-1 activity by compound 56, compound 121 and ABT-888 is shown. Graphs represent mean±s.e.m. ***P<0.0005, two-way ANOVA followed by Tukey's post hoc test (n=3). FIGS. 14F and 14G show Alamar blue cell viability assay from SH-SY5Y cells pre-incubated with either compound 56 or 121 in response to (14F) 0.5 μM staurosporine (STS) or (14G) from HT 22 cells incubated with 1 ng/ml of TNF-α with 50 μM z-VAD. Bars represent mean±s.e.m. ***P<0.0005, two-way ANOVA followed by Tukey's post hoc test (n=5).
(§3) Cell death and viability assessment. Primary cultured cortical neurons were treated with 5 μg/ml of α-syn PFF for 14 days and cell death was determined by staining of all nuclei with 7 μM Hoechst 33342 and dead cell nuclei with 2 μM propidium iodide (PI) (Invitrogen). The numbers of total and dead cells were counted with the Axiovision 4.6 software (Carl Zeiss). Cell viability was determined by fluorescence at an excitation wavelength 570 nm and an emission wavelength 585 nm using Alamar Blue (Invitrogen).

[3] = system: SH-SY5Y cells; assay: Staurosporine (STS)-induced apoptotic cell death, Alamar blue; type: cell-based; details: 0.5 μM STS
Experimental: as §1, §2, §3

[4] = system: cortical neurons; assay: Nuclear translocation of AIF and PAAN/MIF after α-syn PFF treatment in cortical neurons (subcellular fractionation); type: cell-based, mouse; details: primary neuronal cultures
From the text: FIGS. 3A-3H show PAAN/MIF nuclease activity is required for prevention of α-syn PFF-induced neurotoxicity in neurons. […] See Donawho, et al. (2007) Clin. Cancer Res. 13:2728-37. Intensity of PAAN/MIF and AIF signal is shown in the graph. **P<0.005 versus the PBS control group in the nuclear (N) fraction, two-way ANOVA followed by Tukey's post hoc test. […] Intensity of AIF-bound PAAN/MIF is shown in the graph. *P<0.05, student's t-test. […] Scale bars, 20 μm. The white color in the merged images indicates the overlay of AIF, PAAN/MIF and Hoechst dye in the nucleus. The percentage of cells with nuclear localization of PAAN/MIF and AIF is shown in the graph. ***P<0.0005, student's t-test. […] Intensity of noncleaved genomic DNA is shown in the graph. ***P<0.0005, two-way ANOVA. […] Scale bar, 20 μm. […] Bars represent mean±s.e.m. ***P<0.0005, two-way ANOVA followed by Tukey's post hoc test (n=3). […] Bars represent mean±s.e.m. ***P<0.0005, two-way ANOVA followed by Tukey's post hoc test (n=5). […]
Subcellular fractionation. Subcellular fraction and quantification of relative levels of AIF and PAAN/MIF were performed as previously described. […] Each fractions were monitored by PARP-1 antibody (BD) for the nuclear fraction and HSP60 antibody (cell signaling) for the postnuclear fraction.

[5] = molecular target: T1, MIF (Homo sapiens, UniProt P14174); assay: Nuclease assay of Example 3 (MIF inhibitory activity, Table 4); type: biochemical; parameters: (%) inhibition of MIF nuclease activity: concentration or dose not given beside the values; details: nuclease assay of Example 3
T1 sequence (P14174 1-115): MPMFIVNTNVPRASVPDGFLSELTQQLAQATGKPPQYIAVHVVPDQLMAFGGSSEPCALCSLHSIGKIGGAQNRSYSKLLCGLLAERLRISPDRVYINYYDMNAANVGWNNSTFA
Procedure, shortened: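 Human genomic DNA (200 ng), pcDNA (200 ng) or PS^30-type substrates (1 μM) were incubated with MIF (0.25-8 μM final) in 10 mM Tris-HCl pH 7.0, 10 mM MgCl2, 1 mM DTT at 37 °C for 1 h (pcDNA, small substrates) or 4 h (genomic DNA). Cleavage was assessed by agarose or PAGE electrophoresis with EtBr staining and chemiluminescent detection of biotin-labelled DNA.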

[6] = system: HeLa cells or neuronal cells; assay: Cell death assay of Example 3 (MNNG, alamarBlue; protection against parthanatos, Table 4); type: cell-based; details: 1 μM test compound, MNNG-induced cell death, alamarBlue
Procedure, shortened: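 HeLa or neuronal cells (1×10^4/well) were pretreated 1 h at 37° C with 1 μM compound, exposed to MNNG for 15 min, washed, then re-incubated 18 h with 1 μM compound. Viability was read by alamarBlue fluorescence (ex 560/em 590 nm). Cell death was expressed relative to control wells.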

Compound: CO[C@H]1C[C@@H]2CC[C@@H](C)[C@@](O)(O2)C(=O)C(=O)N2CCCC[C@H]2C(=O)O[C@H]([C@H](C)C[C@@H]2CC[C@@H](O)[C@H](OC)C2)CC(=O)[C@H](C)/C=C(\C)[C@@H](O)[C@@H](OC)C(=O)[C@H](C)C[C@H](C)/C=C/C=C/C=C/1C [rapamycin, reference compound]
- inhibition of MNNG-induced parthanatic cell death [1]: failed to inhibit

Compound: CN1C(=O)C(Cc2c[nH]c3ccccc23)NC1=S (stereo not shown) [Nec-1, necrostatin, reference compound]
- TNFα and Z-VAD-induced necroptosis [2]: prevents

Compound: CC(NC(=O)C(NC(=O)OCc1ccccc1)C(C)C)C(=O)NC(CC(=O)O)C(=O)CF (stereo not drawn) [Z-VAD, reference compound] (Cbz-Val-Ala-Asp-CH2F; configuration not given here)
- staurosporine (STS)-induced apoptotic cell death [3]: prevents

Compound: C[C@]1(c2nc3c(C(N)=O)cccc3[nH]2)CCCN1 [ABT-888, reference compound]
- TNFα and Z-VAD-induced necroptosis [2]: not prevented
- staurosporine (STS)-induced apoptotic cell death [3]: do not inhibit
- α-syn PFF-induced nuclear translocation of PAAN/MIF and AIF [4]: attenuated

Compound: COc1ccc(CC[C@H]2OC(=O)[C@@H]3CCCCN3C(=O)C(=O)C(C)(C)COC(=O)C=CCCN(C)C(=O)[C@@H]3CCCN3C(=O)[C@H](COC(C)(C)C)N(C)C(=O)[C@H](c3ccccc3)NC(=O)[C@H](C)N(C)C(=O)COc3cc(F)cc2c3)cc1OC (racemic) [compound 154]
- (%) inhibition of MIF nuclease activity [5]: 38.2%
- (%) inhibition of cell death [6]: 46.2%

Compound: C=CC[C@@H]1/C=C(\C)C[C@H](C)C[C@H](OC)[C@H]2O[C@@](O)(C(=O)C(=O)N3CCCC[C@H]3C(=O)O[C@H](/C(C)=C/[C@@H]3CC[C@@H](O)[C@H](OC)C3)[C@H](C)[C@@H](O)CC1=O)[C@H](C)C[C@@H]2OC [FK506, reference compound]
- inhibition of MNNG-induced parthanatic cell death [1]: failed to inhibit

Compound: COc1ccc(CC[C@H]2OC(=O)[C@@H]3CCCCN3C(=O)C(=O)C(C)(C)COC(=O)C=CCCN(C)C(=O)[C@@H]3CCCN3C(=O)[C@H](COC(C)(C)C)N(C)C(=O)[C@H](Cc3ccncc3)NC(=O)[C@H](C)N(C)C(=O)COc3cccc2c3)cc1OC [compound 104]
- (%) inhibition of MIF nuclease activity [5]: 13.2%
- (%) inhibition of cell death [6]: 20.4%

Compound: COc1ccc(CC[C@H]2OC(=O)[C@@H]3CCCCN3C(=O)C(=O)C(C)(C)COC(=O)C=CCCN(C)C(=O)[C@H](C(C)C)NC(=O)[C@H](COC(C)(C)C)N(C)C(=O)[C@@H](CC(C)C)NC(=O)CN(C)C(=O)COc3cccc2c3)cc1OC [compound 14]
- (%) inhibition of MIF nuclease activity [5]: 11.2%
- (%) inhibition of cell death [6]: 41.6%
